Assay results as given in US20240132475A1, “SUBSTITUTED PYRAZOLYL COMPOUNDS AS MALT-1 INHIBITORS” (AURIGENE ONCOLOGY LIMITED, priority 2021, published 2024).

Target: T1, MALT-1 (Isoform 1) (Homo sapiens, UniProt Q9UDY8)
T1 construct: using recombinant MALT-1 (Isoform 1, aa-840) generated in house; made in house
T1 sequence (Q9UDY8 1-824): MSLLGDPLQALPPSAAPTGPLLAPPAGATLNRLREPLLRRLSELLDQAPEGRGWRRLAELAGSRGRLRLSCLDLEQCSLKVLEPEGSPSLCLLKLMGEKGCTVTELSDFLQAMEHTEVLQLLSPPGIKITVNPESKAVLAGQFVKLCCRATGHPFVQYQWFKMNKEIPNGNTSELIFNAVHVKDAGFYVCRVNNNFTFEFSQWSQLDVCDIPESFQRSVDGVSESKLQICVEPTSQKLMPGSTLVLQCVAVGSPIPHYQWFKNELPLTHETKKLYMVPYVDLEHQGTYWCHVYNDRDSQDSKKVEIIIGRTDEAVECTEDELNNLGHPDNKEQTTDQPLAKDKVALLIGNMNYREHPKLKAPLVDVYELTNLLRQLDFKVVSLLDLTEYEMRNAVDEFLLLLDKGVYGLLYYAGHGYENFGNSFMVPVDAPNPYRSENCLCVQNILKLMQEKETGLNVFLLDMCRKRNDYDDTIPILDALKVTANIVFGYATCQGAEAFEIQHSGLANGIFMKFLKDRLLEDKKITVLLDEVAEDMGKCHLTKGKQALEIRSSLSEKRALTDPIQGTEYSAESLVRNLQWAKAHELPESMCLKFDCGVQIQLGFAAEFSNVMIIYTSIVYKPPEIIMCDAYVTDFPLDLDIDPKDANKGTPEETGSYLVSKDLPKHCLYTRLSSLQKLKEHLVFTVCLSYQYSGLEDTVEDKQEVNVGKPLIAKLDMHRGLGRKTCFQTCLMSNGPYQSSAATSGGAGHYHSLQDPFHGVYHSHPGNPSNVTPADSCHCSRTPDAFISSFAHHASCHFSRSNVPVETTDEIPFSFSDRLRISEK
Test: MALT-1 (Isoform 1) enzyme fluorescent biochemical assay
Conditions: for IC50: dose-response, sigmoidal curve fit, reported as groups A, B, C; for inhibition at 1 µM / Percent Inhibition (1 μM): test compound 1 μM, recombinant MALT-1 1.5 nM; for inhibition at 1 µM: read-out: Percent Inhibition (1 μM)
Description: The potency of compounds to inhibit MALT-1 (Isoform 1) enzyme was tested in a Fluorescent assay using recombinant MALT-1 (Isoform 1, aa-840) generated in house. The assay buffer was 50 mM HEPES (pH 7.5), 100 mM NaCl, 10 mM DTT, 1 mM EDTA, 0.9 M sodium citrate, 0.01% CHAPS. 1.5 nM of MALT-1 enzyme was incubated with test compounds ([…]) (1% DMSO) in the presence of buffer for 30 minutes at 30° C. The protease reaction was initiated by adding […] of AC-LRSR-MAC (Peptide International, USA) substrate and incubated for 240 min. After 240 min incubation, fluorescence emission of the samples at 460 nm was measured at an excitation of 355 nm. The percent inhibition was calculated using the following formula: […]. IC50 values were determined by fitting the dose-response data to sigmoidal curve fitting equation using Graph pad prism software V8.
ND represents Not Determined.

IC50	inhibition at 1 µM	Percent Inhibition (1 μM)	Compound
> 1000 nM	23%	–	CC(C)C(c1cccc(F)c1)n1ncc(C(=O)Nc2cnc(-n3nccn3)c(C#N)c2)c1C(F)(F)F (stereo not shown) [Compound 48, N-(5-cyano-6-(2H-1,2,3-triazol-2-yl)pyridin-3-yl)-1-(1-(3-fluorophenyl)-2-methylpropyl)-5-(trifluoromethyl)-1H-pyrazole-4-carboxamide]
251 to 1000 nM	88%	–	N#Cc1cc(NC(=O)c2cnn(Cc3ccccc3)c2C(F)(F)F)cnc1-n1nccn1 [Compound 7, 1-benzyl-N-(5-cyano-6-(2H-1,2,3-triazol-2-yl)pyridin-3-y1)-5-(trifluoromethyl)-1H-pyrazole-4-carboxamide]
< 250 nM	100%	–	Cc1c(F)cccc1Cn1ncc(C(=O)Nc2cnc(-n3nccn3)c(C#N)c2)c1C(F)(F)F [Compound 26, N-(5-cyano-6-(2H-1,2,3-triazol-2-yl)pyridin-3-y1)-1-(3-fluoro-2-methylbenzyl)-5-(trifluoromethyl)-1H-pyrazole-4-carboxamide]
< 250 nM	–	99%	CC(c1ccccc1)n1ncc(C(=O)Nc2cnc(-n3nccn3)c(Cl)c2)c1C(F)(F)F (single isomer, unassigned) [Compound 5b]
< 250 nM	65%	–	CC(c1cccc(C#N)c1)n1ncc(C(=O)Nc2cnc(-n3nccn3)c(C#N)c2)c1C(F)(F)F (stereo not shown) [Compound 50, N-(5-cyano-6-(2H-1,2,3-triazol-2-yl)pyridin-3-yl)-1-(1-(3-cyanophenyl)ethyl)-5-(trifluoromethyl)-1H-pyrazole-4-carboxamide]
> 1000 nM	40%	–	N#Cc1cc(NC(=O)c2cnn(Cc3ccncc3)c2C(F)(F)F)cnc1-n1nccn1 [Compound 13, N-(5-cyano-6-(2H-1,2,3-triazol-2-yl)pyridin-3-yl)-1-(pyridin-4-ylmethyl)-5-(trifluoromethyl)-1H-pyrazole-4-carboxamide]
251 to 1000 nM	86%	–	N#Cc1cc(NC(=O)c2cnn(Cc3cc(F)cc(F)c3)c2C(F)(F)F)cnc1-n1nccn1 [Compound 36, N-(5-cyano-6-(2H-1,2,3-triazol-2-y1)pyridin-3-yl)-1-(3,5-difluorobenzyl)-5-(trifluoromethyl)-1H-pyrazole-4-carboxamide]
> 1000 nM	40%	–	O=C(Nc1cnc(C(=O)N2CCCC2)c(Cl)c1)c1cnn(Cc2cccc(F)c2Cl)c1C(F)(F)F [Compound 45, 1-(2-chloro-3-fluorobenzyl)-N-(5-chloro-6-(pyrrolidine-1-carbonyl)pyridin-3-yl)-5-(trifluoromethyl)-1H-pyrazole-4-carboxamide]
251 to 1000 nM	–	76%	CC(c1cccc(F)c1)n1ncc(C(=O)Nc2cnc(-n3nccn3)c(C#N)c2)c1C(F)(F)F (single isomer, unassigned) [Compound 3a]
251 to 1000 nM	–	78%	CC(c1ccccc1)n1ncc(C(=O)Nc2cnc(-n3nccn3)c(Cl)c2)c1C(F)(F)F (single isomer, unassigned) [Compound 5a]
> 1000 nM	38%	–	O=C(Nc1cc(C(F)(F)F)ncn1)c1cnn(Cc2cccc(F)c2Cl)c1C(F)(F)F [Compound 44, 1-(2-chloro-3-fluorobenzyl)-5-(trifluoromethyl)-N-(6-(trifluoromethyl)pyrimidin-4-yl)-1H-pyrazole-4-carboxamide]
< 250 nM	–	100%	CC(c1cccc(F)c1)n1ncc(C(=O)Nc2cnc(-n3nccn3)c(C#N)c2)c1C(F)(F)F (single isomer, unassigned) [Compound 3b]
> 1000 nM	14%	–	O=C(Nc1cncnc1)c1cnn(Cc2cccc(F)c2Cl)c1C(F)(F)F [Compound 41, 1-(2-chloro-3-fluorobenzyl)-N-(pyrimidin-5-y1)-5-(trifluoromethyl)-1H-pyrazole-4-carboxamide]
–	41%	–	COc1ncc(NC(=O)c2cnn(Cc3cccc(F)c3)c2C(F)(F)F)cc1Cl [Compound 22, N-(5-chloro-6-methoxypyridin-3-yl)-1-(3-fluorobenzyl)-5-(trifluoromethyl)-1H-pyrazole-4-carboxamide]
> 1000 nM	46%	–	N#Cc1cc(NC(=O)c2cnn(Cc3ccccc3Cl)c2C(F)(F)F)cnc1-n1nccn1 [Compound 20, 1-(2-chlorobenzyl)-N-(5-cyano-6-(2H-1,2,3-triazol-2-y1)pyridin-3-yl)-5-(trifluoromethyl)-1H-pyrazole-4-carboxamide]
< 250 nM	100%	–	N#Cc1cc(NC(=O)c2cnn(Cc3cccc(F)c3Cl)c2C(F)(F)F)cnc1-n1nccn1 [Compound 1, 1-(2-chloro-3-fluorobenzyl)-N-(5-cyano-6-(2H-1,2,3-triazol-2-yl)pyridin-3-yl)-5-(trifluoromethyl)-1H-pyrazole-4-carboxamide]
251 to 1000 nM	63%	–	N#Cc1cc(NC(=O)c2cnn(Cc3cccc(F)c3Cl)c2C(F)(F)F)cnc1-c1ccsc1 [Compound 55, 1-(2-chloro-3-fluorobenzyl)-N-(5-cyano-6-(thiophen-3-y1)pyridin-3-y1)-5-(trifluoromethyl)-1H-pyrazole-4-carboxamide]
< 250 nM	100%	–	COc1c(F)cccc1Cn1ncc(C(=O)Nc2cnc(-n3nccn3)c(C#N)c2)c1C(F)(F)F [Compound 39, N-(5-cyano-6-(2H-1,2,3-triazol-2-yl)pyridin-3-y1)-1-(3-fluoro-2-methoxybenzyl)-5-(trifluoromethyl)-1H-pyrazole-4-carboxamide]
< 250 nM	99%	–	N#Cc1cc(NC(=O)c2cnn(Cc3cccc(F)c3)c2C(F)(F)F)cnc1-n1nccn1 [Compound 15, N-(5-cyano-6-(2H-1,2,3-triazol-2-yl)pyridin-3-y1)-1-(3-fluorobenzy1)-5-(trifluoromethyl)-1H-pyrazole-4-carboxamide]
> 1000 nM	13%	–	O=C(Nc1cc(C(F)(F)F)cnn1)c1cnn(Cc2cccc(F)c2Cl)c1C(F)(F)F [Compound 43, 1-(2-chloro-3-fluorobenzyl)-5-(trifluoromethyl)-N-(5-(trifluoromethyl)pyridazin-3-y1)-1H-pyrazole-4-carboxamide]
251 to 1000 nM	97%	–	Cc1c(F)cccc1Cn1ncc(C(=O)Nc2cnc(-n3nccn3)c(F)c2)c1C(F)(F)F [Compound 30, 1-(3-fluoro-2-methylbenzyl)-N-(5-fluoro-6-(2H-1,2,3-triazol-2-yl)pyridin-3-y1)-5-(trifluoromethyl)-1H-pyrazole-4-carboxamide]
251 to 1000 nM	70%	–	N#Cc1cc(NC(=O)c2cnn(Cc3cc(F)ccc3F)c2C(F)(F)F)cnc1-n1nccn1 [Compound 29, N-(5-cyano-6-(2H-1,2,3-triazol-2-yl)pyridin-3-y1)-1-(2,5-difluorobenzyl)-5-(trifluoromethyl)-1H-pyrazole-4-carboxamide]
251 to 1000 nM	84%	–	Cc1ccc(F)cc1Cn1ncc(C(=O)Nc2cnc(-n3nccn3)c(C#N)c2)c1C(F)(F)F [Compound 28, N-(5-cyano-6-(2H-1,2,3-triazol-2-yl)pyridin-3-yl)-1-(5-fluoro-2-methylbenzyl)-5-(trifluoromethyl)-1H-pyrazole-4-carboxamide]
251 to 1000 nM	77%	–	CC(c1cccc(F)c1)n1ncc(C(=O)Nc2cnc(-n3nccn3)c(Cl)c2)c1C(F)(F)F (racemic) [Compound 4, N-(5-chloro-6-(2H-1,2,3-triazol-2-yl)pyridin-3-yl)-1-(1-(3-fluorophenyl)ethyl)-5-(trifluoromethyl)-1H-pyrazole-4-carboxamide]
251 to 1000 nM	89%	–	CC(c1ccccc1)n1ncc(C(=O)Nc2cnc(-n3nccn3)c(Cl)c2)c1C(F)(F)F (racemic) [Compound 5, N-(5-chloro-6-(2H-1,2,3-triazol-2-yl)pyridin-3-yl)-1-(1-phenylethyl)-5-(trifluoromethyl)-1H-pyrazole-4-carboxamide]
